US8916212B2, “Skin whitening composition containing chia seed extract” (Access Business Group International LLC, priority 2011, dated 2014)

Key:
[1] = tested on: Melan-a murine melanocytes; test: Melanin inhibition assay; type: cell-based; conditions: melan-a cells; for reduction in melanin content: 100 μg/ml in 0.36% pentylene glycol:0.036% DMSO, FIG. 3
Description: (§1) Melan-a murine melanocytes (Wellcome Trust Functional Genomics Cell Bank, St. George Hospital, London, UK) were plated one day prior to treatment in 24 well plates at a density of 5×10^4 cells per well in 1 ml of melan-a cell medium (RPMI-1640, 10% Fetal Bovine Serum (FBS), 1% Penicillin/Streptomycin, 100 μM β-mercaptoethanol, 2 mM L-Glutamine and 200 nM Phorbol 12-myristate 13-acetate) in a 10% CO2 incubator maintained at 37° C. After seeding the cells for 24 hours in triplicate, cells were treated as indicated below. After two days of treatment, the culture media was changed and fresh samples were added and incubated overnight. The cells were initially tested for cell viability and cytoxicity using the WST-1 assay (Roche Applied Science). Following the WST-1 assay, the cells were washed in IX PBS and harvested in extraction buffer for melanin isolation and quantification.
Cells from each well of the 24 well plate were harvested in cell lysis buffer (1% Triton X 100, 50 mM Tris, 2 mM EDTA, 150 mM NaCl, pH 7.5 supplemented with a complete protease inhibitor cocktail). Cell lysates were centrifuged at 20,000 g for 10 min at 4° C. Protein levels in the supernatant were quantified using a Pierce BCA Protein assay kit (Thermo Scientific Corp). Melanin-containing precipitates were washed in 100 μl of ethanol:ether (1:1) for 10 min at room temperature. The ethanol:ether solution was discarded and the melanin-pellets were dissolved in 200 μl of 2N NaOH in 20% DMSO solution and incubated at 70° C. for 60 min. The resulting melanin extract was analyzed by measuring absorbance at 490 nm. The melanin content in each sample was evaluated by normalizing each sample to the total amount of protein.

melan-a cells = test: WST-1 assay for cell viability and cytotoxicity; type: cell-based, murine; conditions: at the concentrations tested
Description: as §1

NC(=S)Nc1ccccc1 [phenylthiourea]
reduction of melanin content ([1]; positive control, FIG. 4 experiment): 70%

CCCCC/C=C\C/C=C\CCCCCCCC(=O)O [linoleic acid]
cytotoxicity to melan-a cells (WST-1) (melan-a cells): not cytotoxic
reduction in melanin content [1]: comparatively minor reductions

CC/C=C\C/C=C\C/C=C\CCCCCCCC(=O)O [α-linolenic acid]
cytotoxicity to melan-a cells (WST-1) (melan-a cells): not cytotoxic
reduction in melanin content [1]: comparatively minor reductions
